13 compounds from PubChem BioAssay (NCI) can be followed below.

Test systems include MDA-MB-435; BT-549 breast; OVCAR-5 ovarian; SK-MEL-5 melanoma; UACC-257 melanoma; PC-3 prostate; NCI-H226 lung.
Common to all, as to assay: NCI anticancer screen, dose series, 48 h

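48-hour exposure; five concentrations; linearly interpolated endpoints. At the GI50, growth is halved. At the TGI there is no net growth.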

With `C=CCN1CC2CON(C(=O)C(OC)(c3ccccc3)C(F)(F)F)C2C1C(C)C` (stereo not given), the GI50 is 41.8 mg/L in the experiment with MDA-MB-435, 30.1 mg/L with BT-549 breast and 32 mg/L in the experiment on OVCAR-5 ovarian.
For `CCN(CC)c1cc2oc3cc(N)cc(=N)c-3nc2cc1C`, the GI50 in the experiment with SK-MEL-5 melanoma was 1.42 µM; in the experiment with UACC-257 melanoma, 3.11 µM; with PC-3 prostate, 1.73 µM; with BT-549 breast, 10.6 µM; in the experiment on NCI-H226 lung, 3.39 µM; in the experiment with OVCAR-5 ovarian, 2.82 µM. Moreover, the TGI is 2.79 µM in the experiment with SK-MEL-5 melanoma; 34 µM in the experiment with UACC-257 melanoma; more than 100 µM in the experiment with PC-3 prostate; 27.4 µM with BT-549 breast; 42.8 µM with NCI-H226 lung; 7.4 µM with OVCAR-5 ovarian.
Turning to `O=C1C(Cl)=C(Nc2ccccc2O)C(=O)N1Cc1ccccc1`, the GI50 with MDA-MB-435 is 19.7 µM; in the experiment with SK-MEL-5 melanoma it was 15.3 µM; in the experiment on PC-3 prostate it was 18.1 µM; in the experiment on NCI-H226 lung, 20.1 µM; with OVCAR-5 ovarian, 18.5 µM. In addition, the TGI in the experiment with MDA-MB-435 is 37.4 µM; in the experiment with SK-MEL-5 melanoma, 28.6 µM; in the experiment with PC-3 prostate, 39.1 µM; in the experiment on NCI-H226 lung, 48.8 µM; with OVCAR-5 ovarian, 32.7 µM.
`CC1=CC(=O)C(C(O)(C(F)(F)F)C(F)(F)F)C(C)(C)C1` (stereo not given): the TGI in the experiment on MDA-MB-435, in the experiment on SK-MEL-5 melanoma, with UACC-257 melanoma, with PC-3 prostate and in the experiment on NCI-H226 lung was more than 10 µM each time.
For the compound `O=C(OCC(OC(=O)c1ccccc1)C(OC(=O)c1ccccc1)C(OC(=O)c1ccccc1)c1cnn(-c2ccccc2)n1)c1ccccc1` (stereo not given), the TGI in the experiment on MDA-MB-435, in the experiment with SK-MEL-5 melanoma, in the experiment with UACC-257 melanoma, in the experiment with BT-549 breast, in the experiment with NCI-H226 lung and in the experiment with OVCAR-5 ovarian was more than 100 µM each time.
With `CCOC(CN(C)C(=S)Nc1cccc2ccccc12)OCC`, the TGI in the experiment with MDA-MB-435, in the experiment with SK-MEL-5 melanoma, in the experiment on UACC-257 melanoma, in the experiment with PC-3 prostate and in the experiment on NCI-H226 lung was more than 10 µM each time.
Turning to `COc1ccc(Cc2cnc(NC(=O)c3ccc4c(c3)OCCO4)s2)cc1`, the GI50 in the experiment with SK-MEL-5 melanoma is 0.0268 µM; with UACC-257 melanoma it was 4.83 µM; in the experiment on PC-3 prostate it was 0.0303 µM; with BT-549 breast, 0.0357 µM; with NCI-H226 lung, 1.72 µM; in the experiment on OVCAR-5 ovarian, 0.0866 µM. The TGI with SK-MEL-5 melanoma is 0.168 µM; with UACC-257 melanoma, more than 100 µM; in the experiment on PC-3 prostate, more than 100 µM; with BT-549 breast, more than 49.5 µM; in the experiment on NCI-H226 lung, 88.5 µM; in the experiment with OVCAR-5 ovarian, more than 72.6 µM.
With `C=C1CC[C@@H](C(C)C)C[C@@H]2[C@H]([C@H](O)C[C@]2(C)O)[C@@]2(C)CC[C@@H]1O2`, the GI50 was 16.4 µM in the experiment on MDA-MB-435; 14.8 µM in the experiment with SK-MEL-5 melanoma; 16.2 µM in the experiment on UACC-257 melanoma; 27.6 µM in the experiment on BT-549 breast; 16.8 µM in the experiment on NCI-H226 lung; 13.2 µM in the experiment with OVCAR-5 ovarian. Moreover, the TGI in the experiment with MDA-MB-435 was 32.1 µM; with SK-MEL-5 melanoma, 28.3 µM; in the experiment on UACC-257 melanoma it was 31.3 µM; with BT-549 breast it was 55.1 µM; with NCI-H226 lung, 31.5 µM; in the experiment with OVCAR-5 ovarian, 26 µM.
On to `COc1ccc2c(c1)C(C)Cc1c(ncnc1-n1cnc3cc(C)ccc31)N2C` (stereo not given), for which the GI50 is 0.0753 µM with SK-MEL-5 melanoma; 0.158 µM in the experiment with UACC-257 melanoma; 0.0407 µM in the experiment with PC-3 prostate; 0.184 µM in the experiment with BT-549 breast; 0.157 µM with NCI-H226 lung; 0.294 µM in the experiment with OVCAR-5 ovarian. The TGI turned out to be 0.589 µM with SK-MEL-5 melanoma; 20.8 µM in the experiment on UACC-257 melanoma; 21 µM in the experiment on PC-3 prostate; 7.12 µM in the experiment with BT-549 breast; 16.3 µM with NCI-H226 lung; 26.8 µM in the experiment with OVCAR-5 ovarian.
As for `Cc1ccc(S(=O)(=O)NC(=O)NC2=NC(C)(C)N(c3ccc(Cl)c(Cl)c3)C(N)=N2)cc1`, the TGI in the experiment with SK-MEL-5 melanoma, with UACC-257 melanoma, in the experiment on PC-3 prostate, with BT-549 breast, in the experiment on NCI-H226 lung and in the experiment with OVCAR-5 ovarian was more than 100 µM in each case.
In the case of `CC(O)CC(O)(C(F)(F)F)C(F)(F)F` (stereo not given), the TGI with MDA-MB-435, with SK-MEL-5 melanoma, with UACC-257 melanoma, in the experiment on PC-3 prostate and in the experiment on NCI-H226 lung was more than 10 µM each time.
Turning to `CC(C)C1=C2CCC3(C)C(CCC4C5C6OCC5(CCC6(C)C)CCC43C)C2(C)CC1` (stereo not given), the TGI in the experiment with MDA-MB-435 was 36.6 µM; with SK-MEL-5 melanoma it was 50.2 µM; with UACC-257 melanoma, 36.1 µM; in the experiment with BT-549 breast, 52.2 µM; in the experiment on NCI-H226 lung, more than 100 µM; in the experiment with OVCAR-5 ovarian it was more than 100 µM.
With `Nc1ccc2nc3n(c2c1)C(=O)c1ccccc1-3`, the TGI in the experiment on SK-MEL-5 melanoma, with UACC-257 melanoma, in the experiment on PC-3 prostate, in the experiment with BT-549 breast, in the experiment on NCI-H226 lung and with OVCAR-5 ovarian was more than 100 µM each time.
